Here are results for one compound from ChEMBL document CHEMBL5316328, “Discovery of AXL Degraders with Improved Potencies in Triple-Negative Breast Cancer (TNBC) Cells” (J Med Chem, 2023).

Structures are written as SMILES.

Data set [1] concerns MDA-MB-231. Put plainly: Induction of apoptosis in human MDA-MB-231 cells assessed as viable cells at 300 nM incubated for 48 hrs by Annexin V-PE staining based flow cytometric analysis (reference value: 92.59 to 92.71%). It counts as functional. The conditions noted are these: read-out: Activity. A general note: In flow cytometry, cells or beads pass a laser one at a time.

A short description of data set [2]: Toxicity in Balb/c nude mouse xenografted with human MDA-MB-231 cells assessed as mortality at 10 to 20 mg/kg, ip administered for 22 days and measured 24 hrs post last dose. The following applies: in vivo, 552 h, dose 10-20 mg/kg, time 23 day. The format is organism-based. (In general: A xenograft is tissue or cells of one species grown in another, often human tumour cells in immunodeficient mice.)

Data set [3] concerns MDA-MB-231. Put plainly: Induction of apoptosis in human MDA-MB-231 cells assessed as early apoptotic cells at 33.3 nM incubated for 48 hrs by Annexin V-PE staining based flow cytometric analysis (reference value: 3.95 to 3.74%). The format is functional.

Consider `CCc1ccc2c(c1)c(=O)c(C(=O)Nc1ccc(Oc3ncnc4cc(OCCCCCC(=O)Nc5ccc6c(c5)CN(C5CCC(=O)NC5=O)C6=O)c(OC)cc34)c(F)c1)c(C)n2C` (stereo not drawn), for which, in the data set on MDA-MB-231 [1], the viability at 0.3 µM is 74.1%. In addition, the results for the Activity result (in data set [2]; in the data set with MDA-MB-231 [3]) were “Non-Toxic” and 6.69%, respectively.
